Results as given in paper PMC7377239, “Cardiovascular Effects of Polychlorinated Biphenyls and Their Major Metabolites” (Environmental Health Perspectives, 2020).
Where a name gives a salt, the structure may show the parent alone.

Key:
[1] = test system: iCell endothelial cells (human iPSC-derived ECs); assay: Tube formation (tubulogenesis) assay in iCell endothelial cells, 18 h; assay type: cell-based; settings: for minimal effective concentration: Homo sapiens, Endothelial cell, endothelial cells (endo), 18 hr; for endo.mtl.18hr / endo.tlps.18hr / endo.tta.18hr / endo.ttl.18hr: iPSC-EC, 0.00 µM = 100.00
In short: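 Tube formation was measured by calcein AM imaging after overnight compound exposure (37°C, 0.5% DMSO vehicle) of human iPSC-derived ECs, 7,500/well, on reduced-growth-factor Geltrex in starvation medium. Vehicle-normalized data fitted to four-parameter logistic; POD set at one vehicle SD; without response, 100 μM taken as NOAEL.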

[2] = test system: iCell endothelial cells (human iPSC-derived ECs); assay: High-content imaging cytotoxicity in iCell endothelial cells, 24 h; assay type: cell-based; settings: for minimal effective concentration: Homo sapiens, Endothelial cell, endothelial cells (endo), 24 hr; for endo.cyto.24hr / endo.mito.24hr / endo.mitoint.24hr / endo.nma.24hr / endo.tc.24hrs: iPSC-EC, 0.00 µM = 100.00
In short: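 Readouts were vehicle-normalised and fitted to a four-parameter logistic model. POD was set at one SD beyond 0.5% DMSO control means, and 100 µM was assigned when no response was seen. Cells were monolayers of iCell endothelial cells imaged after 24 h compound exposure using nuclear, mitochondrial and calcein dyes.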

[3] = tube formation mtl, read-out: POD endo.mtl.18hr
[4] = tube formation tlps, read-out: POD endo.tlps.18hr
[5] = tube formation tta, read-out: POD endo.tta.18hr
[6] = tube formation ttl, read-out: POD endo.ttl.18hr
[7] = cyto, read-out: POD endo.cyto.24hr
[8] = mito, read-out: POD endo.mito.24hr
[9] = mitoint, read-out: POD endo.mitoint.24hr
[10] = nma, read-out: POD endo.nma.24hr

Compound `COc1ccc(-c2cccc(Cl)c2)cc1Cl` [4-OMe-PCB 11, 4-methoxy-3,3′-dichlorobiphenyl] has a minimal effective concentration [1, 3] of 100 µM, a minimal effective concentration [1, 4] of 28.4 µM and a minimal effective concentration [1, 5] of 0.00169 µM. The minimal effective concentration [1, 6] was 0.00197 µM, the minimal effective concentration [2, 7] was 100 µM and the minimal effective concentration [2, 8] was 100 µM. For the same compound, the minimal effective concentration [2, 9] was 100 µM, the minimal effective concentration [2, 10] was 100 µM and the minimal effective concentration ([2]; tc, read-out: POD endo.tc.24hr) was 100 µM.
`Clc1ccc(Cl)c(-c2c(Cl)ccc(Cl)c2Cl)c1Cl` [(-)-PCB 136, 2,2′,3,3′,6,6′-hexachlorobiphenyl] was tested, and the endo.mtl.18hr ([1]; 0.01 µM) was 102.71, the endo.tlps.18hr ([1]; 0.01 µM) was 139.80 and the endo.tta.18hr ([1]; 0.01 µM) was 138.00. The endo.ttl.18hr ([1]; 0.01 µM) was 138.93, the endo.mtl.18hr ([1]; 0.10 µM) was 112.13 and the endo.tlps.18hr ([1]; 0.10 µM) was 103.80. It also gave an endo.tta.18hr ([1]; 0.10 µM) of 103.27, an endo.ttl.18hr ([1]; 0.10 µM) of 116.27 and an endo.mtl.18hr ([1]; 1.00 µM) of 102.66. For the same compound, the endo.tlps.18hr ([1]; 1.00 µM) was 134.14, the endo.tta.18hr ([1]; 1.00 µM) was 146.36 and the endo.ttl.18hr ([1]; 1.00 µM) was 142.63. The endo.mtl.18hr ([1]; 10.00 µM) was 114.95, the endo.tlps.18hr ([1]; 10.00 µM) was 133.39 and the endo.tta.18hr ([1]; 10.00 µM) was 144.91. It also gave an endo.ttl.18hr ([1]; 10.00 µM) of 148.25, an endo.mtl.18hr ([1]; 100.00 µM) of 40.89 and an endo.tlps.18hr ([1]; 100.00 µM) of 14.11. The endo.tta.18hr ([1]; 100.00 µM) was 1.36, the endo.ttl.18hr ([1]; 100.00 µM) was 1.73 and the endo.cyto.24hr ([2]; 0.01 µM) was 97.58. For the same compound, the endo.mito.24hr ([2]; 0.01 µM) was 98.40, the endo.mitoint.24hr ([2]; 0.01 µM) was 92.73 and the endo.nma.24hr ([2]; 0.01 µM) was 101.21. The endo.tc.24hrs ([2]; 0.01 µM) was 97.58, the endo.cyto.24hr ([2]; 0.10 µM) was 98.68 and the endo.mito.24hr ([2]; 0.10 µM) was 99.17. It also gave an endo.mitoint.24hr ([2]; 0.10 µM) of 90.73, an endo.nma.24hr ([2]; 0.10 µM) of 99.07 and an endo.tc.24hrs ([2]; 0.10 µM) of 98.68. For the same compound, the endo.cyto.24hr ([2]; 1.00 µM) was 92.98, the endo.mito.24hr ([2]; 1.00 µM) was 93.57 and the endo.mitoint.24hr ([2]; 1.00 µM) was 89.65. The endo.nma.24hr ([2]; 1.00 µM) was 102.49, the endo.tc.24hrs ([2]; 1.00 µM) was 92.98 and the endo.cyto.24hr ([2]; 10.00 µM) was 96.25. The endo.mito.24hr ([2]; 10.00 µM) was 96.58, the endo.mitoint.24hr ([2]; 10.00 µM) was 86.88 and the endo.nma.24hr ([2]; 10.00 µM) was 101.21. It also gave an endo.tc.24hrs ([2]; 10.00 µM) of 96.25, an endo.cyto.24hr ([2]; 100.00 µM) of 49.24 and an endo.mito.24hr ([2]; 100.00 µM) of 43.24. For the same compound, the endo.mitoint.24hr ([2]; 100.00 µM) was 53.93, the endo.nma.24hr ([2]; 100.00 µM) was 111.21 and the endo.tc.24hrs ([2]; 100.00 µM) was 54.61.
With `O=S(=O)(O)Oc1ccc(-c2cccc(Cl)c2)cc1Cl` [4-PCB 11 sulfate] the minimal effective concentration [1, 3] was 25.3 µM, the minimal effective concentration [1, 4] was 12.7 µM and the minimal effective concentration [1, 5] was 21 µM. It also gave a minimal effective concentration [1, 6] of 25.6 µM, a minimal effective concentration [2, 7] of 100 µM and a minimal effective concentration [2, 8] of 100 µM. For the same compound, the minimal effective concentration [2, 9] was 100 µM, the minimal effective concentration [2, 10] was 100 µM and the minimal effective concentration ([2]; tc, read-out: POD endo.tc.24hr) was 100 µM.
